# According to paper PMC10850954, “HDAC6/aggresome processing pathway importance for inflammasome formation is context-dependent” (The Journal of Biological Chemistry, 2024):
# Legend:
# HA-F10-FKBP F36V = target: T1, HA-F10-FKBP F36V (Homo sapiens, UniProt P62942, F37V); test: dTAG-induced degradation of DARPin F10-FKBPF36V in THP-1 cells (immunoblot); type: cell-based; conditions: F10-FKBPF36V THP-1 cells, within 6 h of dTAG addition
# T1 construct: expressed in transfected cells; host or cells: THP-1, lentiviral transduction, single-cell clone
# NLRP3 inflammasome = test: IL-1β release in THP-1 cells after nigericin stimulation; type: cell-based, human; conditions: dTAG 1 μM
# HDAC6 [1] = target: T2, HDAC6 (Homo sapiens, UniProt Q9UBN7); design: endogenous in cells; method as in PMID 37481141; conditions: THP-1 cells; cited from earlier work
# T2 sequence (Q9UBN7 1-1215): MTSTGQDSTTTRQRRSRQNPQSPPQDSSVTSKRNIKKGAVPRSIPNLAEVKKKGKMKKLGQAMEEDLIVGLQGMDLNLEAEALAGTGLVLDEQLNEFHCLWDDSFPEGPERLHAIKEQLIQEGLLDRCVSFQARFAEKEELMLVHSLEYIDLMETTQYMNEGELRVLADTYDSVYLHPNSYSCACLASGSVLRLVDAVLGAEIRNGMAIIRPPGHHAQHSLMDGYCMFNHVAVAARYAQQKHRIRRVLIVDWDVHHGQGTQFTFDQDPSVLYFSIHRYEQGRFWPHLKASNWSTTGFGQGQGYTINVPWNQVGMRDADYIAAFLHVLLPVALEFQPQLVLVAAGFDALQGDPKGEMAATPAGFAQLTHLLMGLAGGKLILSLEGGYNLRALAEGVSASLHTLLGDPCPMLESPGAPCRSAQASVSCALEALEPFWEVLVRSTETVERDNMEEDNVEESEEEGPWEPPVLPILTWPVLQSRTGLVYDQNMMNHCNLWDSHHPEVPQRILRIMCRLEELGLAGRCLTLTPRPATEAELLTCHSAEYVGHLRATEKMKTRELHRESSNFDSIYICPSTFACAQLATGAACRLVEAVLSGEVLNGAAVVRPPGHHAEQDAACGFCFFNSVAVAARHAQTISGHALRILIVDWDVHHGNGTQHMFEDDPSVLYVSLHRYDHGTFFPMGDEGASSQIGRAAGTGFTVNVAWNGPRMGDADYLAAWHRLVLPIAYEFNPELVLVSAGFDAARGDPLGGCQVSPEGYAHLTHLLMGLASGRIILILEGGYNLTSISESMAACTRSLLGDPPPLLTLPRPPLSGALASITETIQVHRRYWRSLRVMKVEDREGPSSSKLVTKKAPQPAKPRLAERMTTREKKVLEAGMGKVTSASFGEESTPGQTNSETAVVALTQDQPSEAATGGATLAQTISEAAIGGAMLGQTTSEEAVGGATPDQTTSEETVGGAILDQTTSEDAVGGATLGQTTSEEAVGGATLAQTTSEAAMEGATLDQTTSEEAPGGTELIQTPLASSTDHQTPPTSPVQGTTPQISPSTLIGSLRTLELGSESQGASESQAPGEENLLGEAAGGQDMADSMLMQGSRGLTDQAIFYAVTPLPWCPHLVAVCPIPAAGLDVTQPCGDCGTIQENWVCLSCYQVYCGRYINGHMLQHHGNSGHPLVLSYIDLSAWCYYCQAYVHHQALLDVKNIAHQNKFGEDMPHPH
# HDAC6 [2] = target: T2, HDAC6; design: method as in PMID 26471297; conditions: BMDMs; cited from earlier work
# T1 sequence (P62942 2-108 F37V limits assumed): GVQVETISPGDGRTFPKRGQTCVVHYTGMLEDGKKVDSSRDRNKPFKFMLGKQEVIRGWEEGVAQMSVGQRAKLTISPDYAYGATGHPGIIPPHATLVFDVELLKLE
# T1 sequence (Q96SW2 whole entry, further chain): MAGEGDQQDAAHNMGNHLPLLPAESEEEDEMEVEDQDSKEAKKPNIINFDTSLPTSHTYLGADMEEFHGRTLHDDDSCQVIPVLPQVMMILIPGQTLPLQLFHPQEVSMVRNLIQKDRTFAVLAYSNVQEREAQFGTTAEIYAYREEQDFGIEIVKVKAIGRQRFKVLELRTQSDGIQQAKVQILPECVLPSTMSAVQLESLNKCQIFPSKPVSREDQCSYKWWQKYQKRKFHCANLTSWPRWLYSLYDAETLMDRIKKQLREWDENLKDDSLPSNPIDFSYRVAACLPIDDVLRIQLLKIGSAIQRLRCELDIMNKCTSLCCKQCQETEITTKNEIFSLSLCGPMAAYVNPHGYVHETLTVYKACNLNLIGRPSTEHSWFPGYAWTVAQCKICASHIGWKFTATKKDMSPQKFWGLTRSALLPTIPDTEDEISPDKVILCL
degradation of DARPin F10 (HA-F10-FKBP F36V),Structure (SMILES),"IL-1β release (NLRP3 inflammasome; F10-FKBPF36V THP-1 cells, PMA 0.5 μM, nigericin 15 μM, compared to WT THP-1)","IL-1β release (NLRP3 inflammasome; parental WT THP-1, PMA 0.5 μM 3 h, nigericin 15 μM 3 h, MCC950 10 μM)",IL-1β release (HDAC6 [1]),mIL-1β level (HDAC6 [2])
efficiently degraded,CC[C@H](C(=O)N1CCCC[C@H]1C(=O)O[C@H](CCc1ccc(OC)c(OC)c1)c1ccccc1OCC(=O)NCCCCCCOc1cccc2c1C(=O)N(C1CCC(=O)NC1=O)C2=O)c1cc(OC)c(OC)c(OC)c1 (some centres unmarked) [dTAG],"partial, but significant, recovery",comparable,–,–
–,CN1CCc2c(c3ccccc3n2Cc2ccc(C(=O)NO)cc2)C1 [Tubastatin A],–,–,reduced IL-1β release,did not impact the mIL-1β level
